# In ChEMBL document CHEMBL5728097, “Amino pyrazolopyrimidine compound used as neurotrophic factor tyrosine kinase receptor inhibitor” (2020):
# Molecular target: High affinity nerve growth factor receptor (Homo sapiens, UniProt P04629)
# Experiment: Inhibitory Activity Assay: TrkA, TrkB and TrkC:A testing platform for TrkA, TrkB and TrkC kinase activity was established based on Homogeneous Time-Resolved Fluorescence (HTRF) assay, and the activities of the compounds were tested using the platform. The compounds were subjected to three-fold gradient dilution with 100% DMSO with a starting concentration of 1 mM (11 concentrations in total). 4 μL of diluted sample for each concentration was added to 96 μL of reaction buffer (50 mM HEPES, pH7.4, 5 mM MgCl2, 1 mM NaVO3, 0.001% Tween-20, 0.01% BSA and 1 mM DTT) and mixed homogeneously to be used as a 4* compound. The reaction buffer was used to formulate 2* TrkA, TrkB and TrkC kinases (purchased from Carna Biosciences 08-186, 08-187, 08-197, and the final concentrations thereof were 0.5 nM, 0.1 nM, and 1 nM, respectively) and 4* substrate mixture (ATP+TK peptide) (wherein the final concentrations of ATP were 40 μM, 50 μM, and 20 μM, respectively; TK peptide, HTRF® KinEASE™-TK, was purchased from Cisbio, and the final concentration thereof was 100 nM) for use. 2.5 μL of the 4* compound was added to a 384-well plate (OptiPlate-384, purchased from PerkinElmer), and then 5 μL of the 2* TrkA, TrkB and TrkC kinases were added, and mixed homogeneously by centrifugation. Then 2.5 μL of the 4* substrate mixture was added to initiate the reaction (the total reaction volume is 10 μL). The 384-well plate was placed in an incubator and incubated for 60 min at 23° C. Then the reaction was terminated by adding 5 μL of Eu3+ cryptate-labeled anti-phosphotyrosine antibody (HTRF® KinEASE™-TK, purchased from Cisbio), and 5 μL of Streptavidin-XL-665 (HTRF® KinEASE™-TK, purchased from Cisbio). After incubated for 1 hr in the incubator, the fluorescence values were read on Envision (purchased from PerkinElmer).
# High affinity nerve growth factor receptor, sequence (P04629 whole entry): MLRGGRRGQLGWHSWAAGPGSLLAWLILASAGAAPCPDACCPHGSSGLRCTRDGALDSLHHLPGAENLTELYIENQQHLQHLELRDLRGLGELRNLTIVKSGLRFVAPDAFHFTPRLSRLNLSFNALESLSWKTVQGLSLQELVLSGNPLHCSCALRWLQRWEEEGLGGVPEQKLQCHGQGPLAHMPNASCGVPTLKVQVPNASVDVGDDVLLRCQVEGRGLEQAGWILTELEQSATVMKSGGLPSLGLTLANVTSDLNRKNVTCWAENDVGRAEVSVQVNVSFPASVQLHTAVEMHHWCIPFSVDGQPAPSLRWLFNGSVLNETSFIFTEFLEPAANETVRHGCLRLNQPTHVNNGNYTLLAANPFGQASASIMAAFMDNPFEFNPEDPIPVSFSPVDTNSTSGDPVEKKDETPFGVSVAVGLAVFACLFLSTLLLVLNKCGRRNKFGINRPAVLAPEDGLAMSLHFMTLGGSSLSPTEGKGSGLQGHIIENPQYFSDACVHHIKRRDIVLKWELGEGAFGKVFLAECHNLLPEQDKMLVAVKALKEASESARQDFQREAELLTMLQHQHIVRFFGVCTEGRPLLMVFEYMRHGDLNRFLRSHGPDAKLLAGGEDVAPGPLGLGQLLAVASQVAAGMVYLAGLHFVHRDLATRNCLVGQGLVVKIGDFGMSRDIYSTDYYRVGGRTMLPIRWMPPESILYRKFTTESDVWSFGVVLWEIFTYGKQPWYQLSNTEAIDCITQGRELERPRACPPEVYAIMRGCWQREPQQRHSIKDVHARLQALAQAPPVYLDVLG
row,SMILES,IC50 [nM]
1,CCOC(=O)c1c(N)nn2ccc(N3C[C@@H](O)CC3c3cc(F)ccc3F)nc12 (stereo partly specified),< 500
2,CC1(C)OCC(CONC(=O)c2c(N)nn3ccc(N4CCC[C@@H]4c4cc(F)ccc4F)nc23)O1 (stereo partly specified),< 1
3,N#Cc1c(N)nn2ccc(N3C[C@@H](F)C[C@@H]3c3cc(F)ccc3F)nc12,< 1
4,CCOC(=O)c1c(N)nn2ccc(N3C[C@H](O)CC3c3cc(F)ccc3F)nc12 (stereo partly specified),< 25
5,NC(=O)c1c(N)nn2ccc(N3C[C@@H](O)C[C@@H]3c3cc(F)ccc3F)nc12,< 25
6,CC(C)(CO)ONC(=O)c1c(N)nn2ccc(N3CCC[C@@H]3c3cc(F)ccc3F)nc12,< 1
7,Nc1nn2ccc(N3CCC[C@@H]3c3cc(F)ccc3F)nc2c1Br,< 25
8,Nc1nn2ccc(N3CCC[C@@H]3c3cc(F)ccc3F)nc2c1C(=O)NOCCO,< 1
9,CN(C)C(=O)c1c(N)nn2ccc(N3CCC[C@@H]3c3cc(F)ccc3F)nc12,< 25
10,CC(C)(C)ONC(=O)c1c(N)nn2ccc(N3CCC[C@@H]3c3cc(F)ccc3F)nc12,< 1
11,Nc1nn2ccc(N3CCC[C@@H]3c3cc(F)ccc3F)nc2c1C(=O)NC1CCC(O)CC1 (stereo partly specified),< 1
